Experimental data reported in patent US11510928B2, “Use of mirtazapine in the treatment of inflammatory disorders, autoimmune disease and PBC” (UTI Limited Partnership, priority 2017, dated 2022).

Tests used:
Con A-induced hepatitis = assay: Concanavalin A (Con A) hepatitis model of immune-mediated liver injury; format: in vivo, mouse; conditions: for Con A-induced liver damage (plasma ALT levels): 1, 10, 20 mg/kg ip 1 hour before Con A
Procedure: To determine whether mirtazapine treatment alters subsequent immune-mediated liver injury, we used the mouse model of concanavalin (Con A) hepatitis. The Con A model is a widely used and well characterized model of immune-mediated T cell-driven liver injury^16, 17. Mice were treated with mirtazapine 20 mg/kg ip and 1 hour later Con A (Sigma, St. Louis, Mo.) or PBS vehicle was injected intravenously at a dose of 13.5 mg/kg^17. Mice were sacrificed 16 hours following Con A administration and hepatitis determined biochemically (ALT) and histologically (H & E staining)^17, 18. In addition, to further characterize the effects of mirtazapine in the Con A model, we performed a mirtazapine dose response study with mirtazapine doses of 1, 10, and 20 mg/kg ip given 1 hour prior to Con A treatment.
(§1) To assess liver injury, plasma alanine aminotransferase (ALT) activity was measured (Roche-Hitachi Modular-P800 apparatus; Roche, Mannheim, Germany). Additionally, formalin-fixed liver tissue slices were stained with Hematoxylin and Eosin (H&E) for microscopic examination. Extent of liver parenchymal necrosis was quantitated as previously described, using an Olympus XC10 camera (acquired using the Olympus VS-ASW software package; original magnification ×400). Images were later processed and selected images obtained at 25 or 50% magnification (corresponding to magnifications of 100x and 200X, respectively).
Hepatic CXCL10/IP-10, CXCL9/MIG, ICAM-1 and VCAM-1 expression were determined using immunohistochemistry, as previously described. Briefly, following initial deparaffinization and rehydration of tissue sections, antigen retrieval was performed in lx Citrate buffer, PH 6.0 (Abcam) for IP-10/CXCL9 and MIG/CXCL9, or in 1X EDTA buffer pH 8.0 for ICAM1 and VCAM-1. In all cases slides were incubated in antigen retrieval buffer at 95-100° C. for 20 minutes. Endogenous peroxidase and endogenous biotin were blocked using 3% H2O2 and an avidin/biotin blocking kit (Vector Laboratories, Burlingame, Calif.) respectively, and then incubated with primary antibodies (Rabbit IgG polyclonal against MIG at 1:200; polyclonal goat IgG against IP-10/CXCL10 at 1:40; rat monoclonal against ICAM-1 clone YN1/1.7.4 at 1:200; and rabbit monoclonal against VCAM1 clone EPR5047 at 1:1000) overnight at 4° C. This was followed by incubation with biotinylated rabbit anti-goat, goat-anti rat or goat anti-rabbit secondary antibodies (at 1:150) for 1 hour at room temperature (Vector Labs). Negative staining controls were performed by omission of primary antibody, or by omission of both primary and secondary antibodies. […] This was followed by incubation with Vectastain Elite ABC kit (Vector Laboratories) for 30 min at room temperature. Color was developed with Nova Red Chromogen (ImmPACT NovaRED Peroxidase Substrate, Vector Lab, Burlingame, Calif.), after which sections were counterstained with hematoxylin (EMD Millipore). Mounted slides were converted to virtual slides with a BX61 VS virtual microscopy system equipped with an XC10 camera and VS ASW software (Olympus) (original magnification ×400). For ICAM-1, VCAM1, CXCL9/Mig, and CXCL10/IP10 expression, all scanned virtual slides of the sections were examined in a blinded fashion, and expression patterns evaluated and described.
To delineate the effect of mirtazapine treatment on hepatic cytokine/chemokine expression a Luminex® assay was used using methods as previously described. Livers were collected 5 hours after mirtazapine or vehicle treatment. A panel of mouse cytokines/chemokines were simultaneously measured in liver homogenate samples using a mouse MILLIPLEX kit (Millipore, USA) according to the manufacturer's protocol. The multiplexing analysis was performed using the Luminex 100 system (Luminex®, USA; Eve Technologies Corporation, Calgary, Canada). Total protein concentrations in liver homogenates were quantified using a BCA Protein Assay kit (Pierce, USA) according to manufacturers instructions. […]

[1] = Liver injury after mirtazapine alone (serum ALT, histology); format: in vivo, mouse; conditions: data not shown
Procedure: Male 8-10 week old C57BL/6 mice (Jackson Labs, Bar Harbor, Me.) were used. All procedures were approved by the University of Calgary Animal Care Committee (protocol numbers AC14-0129 and AC14-0128) and were performed in accordance with the guidelines of the Canadian Council on Animal Care. To delineate the impact of mirtazapine treatment upon liver immune cell numbers and phenotype, and upon cytokine/chemokine networks within the liver, mice were treated with mirtazapine 1-20 mg/kg intraperitoneally^13-15. Mirtazapine was suspended in 1% aqueous solution of Tween 80, whereas the control group received 1% aqueous solution of Tween 80. Blood and liver samples were collected 5 hours post-mirtazapine treatment (or 16 hours post-Con A treatment). The detailed experimental protocols, lists of antibodies and reagents used, flow cytometry gating, and immune cell phenotyping strategies, are described herein.
as §1, with “Images were later processed and selected images obtained at 25 or 50% magnification (corresponding to magnifications of 100x and 200X, respectively).” left out

CN1CCN2c3ncccc3Cc3ccccc3C2C1 (centres unmarked) [Mirtazapine]
Histological liver damage (liver cell necrosis, H&E) (Con A-induced hepatitis; 20 mg/kg, 16 hrs post-Con A): only a minimal hepatocyte damage
Con A-induced liver damage (plasma ALT levels) (Con A-induced hepatitis; 16 hrs post-Con A): markedly attenuated
Con A-induced liver damage (plasma ALT levels) (Con A-induced hepatitis; 16 hrs post-Con A, listed as mirtazapine): striking reduction in liver damage
Hepatic CXCL10 levels (Con A-induced hepatitis; Con A treated mice, 20 mg/kg): significantly augmented
Hepatic IL-10 levels (Con A-induced hepatitis; Con A treated mice, 20 mg/kg): significantly higher
Hepatic TNFα and IFNγ levels (Con A-induced hepatitis; Con A treated mice, 20 mg/kg): significantly reduced
Hepatic levels of IL-6, IL-9 and LIF (Con A-induced hepatitis; Con A treated mice, 20 mg/kg): significantly reduced
Hepatic levels of the chemokines CXCL9, CXCL2, CXCL1, CCL11 and CCL2 (Con A-induced hepatitis; Con A treated mice, 20 mg/kg): reduced
Con A-induced increases in ICAM-1 expression in hepatic central veins and sinusoidal endothelium (Con A-induced hepatitis; IHC, 20 mg/kg): almost completely prevented
Con A-induced increases in hepatic VCAM-1 expression (Con A-induced hepatitis; IHC, 20 mg/kg): minimal effect
Liver injury as reflected by serum ALT levels or histology [1]: did not induce liver injury
